# Patent publication US6657060B2, “Pyrimidine derivatives” (Hoffman-La Roche Inc., priority 2000, dated 2003)
# Biological target: T1, recombinant mouse NPY5-receptor (mNPY5) (Mus musculus, UniProt O70342)
# T1 construct: The full-length cDNA encoding the mouse NPY5 (mNPY5) receptor was amplified from mouse brain cDNA; expressed in transfected cells; membranes
# T1 sequence (O70342 1-466): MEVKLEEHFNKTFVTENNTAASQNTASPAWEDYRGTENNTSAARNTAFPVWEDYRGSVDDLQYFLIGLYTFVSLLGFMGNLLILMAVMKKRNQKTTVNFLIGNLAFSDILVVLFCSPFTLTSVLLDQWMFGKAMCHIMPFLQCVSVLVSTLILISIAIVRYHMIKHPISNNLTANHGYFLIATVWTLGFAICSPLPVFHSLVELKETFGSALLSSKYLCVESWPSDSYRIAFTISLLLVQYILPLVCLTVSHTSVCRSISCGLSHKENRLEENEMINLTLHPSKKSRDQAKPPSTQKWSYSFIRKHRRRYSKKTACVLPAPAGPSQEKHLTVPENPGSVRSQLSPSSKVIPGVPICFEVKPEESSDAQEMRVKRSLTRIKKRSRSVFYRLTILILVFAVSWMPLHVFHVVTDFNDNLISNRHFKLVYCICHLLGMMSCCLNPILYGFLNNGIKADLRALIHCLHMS
# Assay: Radioligand competition binding
# Conditions: membranes of HEK293 cells expressing mNPY5; 100 pM [125I]labelled peptide YY (PYY); 1 h at 22° C.
# Excerpt: The full-length cDNA encoding the mouse NPY5 (mNPY5) receptor was amplified from mouse brain cDNA using specific primers, designed based on the published sequence, and Pfu DNA-Polymerase (Stratagene). The amplification product was subcloned into the mammalian expression vector pcDNA3 using Eco RI and XhoI restriction sites. Positive clones were sequenced and one clone, encoding the published sequence was selected for generation of stable cell clones.
# Human embryonic kidney 293 (HEK293) cells were transfected with 10 μg mNPY5 DNA using the lipofectamine reagent (Gibco BRL) according to the manufacturer's instruction. Two days after transfection, geneticin selection (1 mg/ml) was initiated and several stable clones were isolated. One clone was further used for pharmacological characterization.
# Human embryonic kidney 293 cells (HEK293), expressing recombinant mouse NPY5-receptor (mNPY5) were broken by three freeze/thawing cycles in hypotonic Tris buffer (5 mM, pH 7.4, 1 mM MgCl2), homogenized and centrifuged at 72,000×g for 15 min. The pellet was washed twice with 75 mM Tris buffer, pH 7.4, containing 25 mM MgCl2 and 250 mM sucrose, 0.1 mM phenylmethylsulfonylfluoride and 0.1 mM 1,10-pheneanthrolin, resuspended in the same buffer and stored in aliquots at −80° C. Protein was determined according to the method of Lowry using bovine serum albumine (BSA) as a standard. […]
row,IC50,Structure (SMILES)
1,18 nM,"Cc1cc(N2CCCC2)nc(/C=C/c2cccc(C#N)c2)n1 [Compound 20, (E)-3-[2-(4-methyl-6-pyrrolidin-1-yl-pyrimidin-2-yl)-vinyl]-benzonitrile]"
2,30 nM,"Cc1cc(N2CCCC2)nc(/C=C/c2ccc(F)cc2F)n1 [Compound 43, (E)-2-[2-(2,4-difluoro-phenyl)-vinyl]-4-methyl-6-pyrrolidin-1-yl-pyrimidine]"
